Experimental data published in PubChem BioAssay (NCI).
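All cell lines were grown in 96-well plates and treated with compound for 48 hours. GI50 marks 50% less growth. TGI marks complete inhibition of growth.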

Legend:
Test in all cases: NCI-60 cell line screen, 48 h
786-0 renal = test system: 786-0 renal
A498 renal = test system: A498 renal
A549 NSCLC = test system: A549 NSCLC
ACHN renal = test system: ACHN renal
BT-549 breast = test system: BT-549 breast
CAKI-1 renal = test system: CAKI-1 renal
CCRF-CEM leukemia = test system: CCRF-CEM leukemia
COLO 205 colon = test system: COLO 205 colon
DU-145 prostate = test system: DU-145 prostate
HCC-2998 colon = test system: HCC-2998 colon
HCT-116 colon = test system: HCT-116 colon
HCT-15 colon = test system: HCT-15 colon
HL-60(TB) leukemia = test system: HL-60(TB) leukemia
HOP-62 NSCLC = test system: HOP-62 NSCLC
HOP-92 NSCLC = test system: HOP-92 NSCLC
HS 578T breast = test system: HS 578T breast
HT29 colon = test system: HT29 colon
IGROV1 ovarian = test system: IGROV1 ovarian
K-562 leukemia = test system: K-562 leukemia
KM12 colon = test system: KM12 colon
M14 melanoma = test system: M14 melanoma
MCF7 breast = test system: MCF7 breast
MDA-MB-231 breast = test system: MDA-MB-231 breast
MDA-MB-435 = test system: MDA-MB-435
MOLT-4 leukemia = test system: MOLT-4 leukemia

SMILES: ClC(Cl)c1nc(-c2cccs2)n2nc(-c3ccccc3)cc2n1
- GI50 (786-0 renal): 2370 nM
- TGI (786-0 renal): > 100000 nM
- GI50 (A498 renal): 1250 nM
- TGI (A498 renal): 2530 nM
- GI50 (A549 NSCLC): 680 nM
- TGI (A549 NSCLC): 2730 nM
- GI50 (ACHN renal): 274 nM
- TGI (ACHN renal): 1050 nM
- GI50 (BT-549 breast): 8730 nM
- TGI (BT-549 breast): > 100000 nM
- GI50 (CAKI-1 renal): 1130 nM
- TGI (CAKI-1 renal): 4010 nM
- GI50 (CCRF-CEM leukemia): 5920 nM
- TGI (CCRF-CEM leukemia): > 100000 nM
- GI50 (COLO 205 colon): 476 nM
- TGI (COLO 205 colon): 2070 nM
- GI50 (DU-145 prostate): 293 nM
- TGI (DU-145 prostate): 770 nM
- GI50 (HCC-2998 colon): 464 nM
- TGI (HCC-2998 colon): 1740 nM
- GI50 (HCT-116 colon): 1300 nM
- TGI (HCT-116 colon): 6870 nM
- GI50 (HCT-15 colon): 1060 nM
- TGI (HCT-15 colon): 3630 nM
- GI50 (HL-60(TB) leukemia): 267 nM
- TGI (HL-60(TB) leukemia): 1310 nM
- GI50 (HOP-62 NSCLC): 419 nM
- TGI (HOP-62 NSCLC): 2990 nM
- GI50 (HOP-92 NSCLC): 444 nM
- TGI (HOP-92 NSCLC): 2480 nM
- GI50 (HS 578T breast): 1600 nM
- TGI (HS 578T breast): 4710 nM
- GI50 (HT29 colon): 355 nM
- TGI (HT29 colon): 1750 nM
- GI50 (IGROV1 ovarian): 2650 nM
- TGI (IGROV1 ovarian): > 100000 nM
- GI50 (K-562 leukemia): 2130 nM
- TGI (K-562 leukemia): > 100000 nM
- GI50 (KM12 colon): 2480 nM
- TGI (KM12 colon): 8340 nM
- GI50 (M14 melanoma): 4350 nM
- TGI (M14 melanoma): > 100000 nM
- GI50 (MCF7 breast): 425 nM
- TGI (MCF7 breast): 3530 nM
- GI50 (MDA-MB-231 breast): 500 nM
- TGI (MDA-MB-231 breast): 2750 nM
- GI50 (MDA-MB-435): 1470 nM
- TGI (MDA-MB-435): 2990 nM
- GI50 (MOLT-4 leukemia): 2820 nM
- TGI (MOLT-4 leukemia): > 100000 nM
